Laboratory results from patent EP0288176A1, “Tyrosine derivatives and use thereof” (AJINOMOTO CO., INC., priority 1987, dated 1988).

Assays:
[1] = Toxicity: LD50 in mice, perorally administered; conditions: mouse, in vivo, po, read-out: LD₅₀
Excerpt: Toxicity of O-alkyl tyrosine derivatives is low; each of LD₅₀ in mice perorally administered of O-methyl-N-(4-methylcinnamoyl)-L-tyrosine (S-1), O-methyl-N-(α-fluoro-4-methylcinnamoyl)-L-tyrosine (S-5), O-methyl-N-(β-chloro-4-methylcinnamoyl)-L-tyrosine (S-9) is 3.0 g/kg or higher.

[2] = Activity test: peroral administration with insulin, blood glucose decrease and blood insulin increase; type: in vivo, female mice of ICR-CD-1 strain; parameters: key to percent decrease in blood sugar (%): The symbol + means that there was no decrease in blood sugar; key to degree of increase of blood insulin: the symbol - means that there was no increase in blood insulin; conditions: 0.5 U insulin/10 g bodyweight and 3 mg compound/10 g bodyweight, compared with control group
Description: The absorption promoting agents according to the present invention shown in Table 1 were suspended in 0.5% CMC - 0.05 M trisHCl buffer (pH 7.8), and mixed with insulin. The resultant mixture was administered perorally to female mice of ICR-CD-1 strain (aged 5 to 7 weeks) at 0.5 U insulin/10 g bodyweight and 3 mg of the above compound/10 g bodyweight. The percent decrease of blood glucose(%) and the degree of increase of blood insulin after predetermined periods of time were compared with those of the control group, and the results are shown in Table 2.
In the Table, the figures given in the upper rows denote 1) percent of decrease in blood glucose(%) and those in the lower rows in parentheses denote 2) degree of increase in blood insulin level. The symbol + means that there was no decrease in blood sugar and the symbol - means that there was no increase in blood insulin.

SMILES | LD50 [1] | percent decrease in blood sugar (%) ([2]; 30 min.) | percent decrease in blood sugar (%) ([2]; 60 min.) | further results
COc1ccc(C[C@H](NC(=O)C=Cc2ccc(C)cc2)C(=O)O)cc1 [Compound S-1, O-methyl-N-(4-methylcinnamoyl)-L-tyrosine] | ≥ 3000 mg/kg |  |  | 
CCOc1ccc(C[C@H](NC(=O)C=Cc2ccc(C)cc2)C(=O)O)cc1 [Compound S-2, O-ethyl-N-(4-methylcinnamoyl)-L-tyrosine] |  | + |  | degree of increase of blood insulin ([2]; 30 min.): -
COc1ccc(C[C@H](NC(=O)C(F)=Cc2ccccc2)C(=O)O)cc1 [Compound S-4, O-methyl-N-(α-fluorocinnamoyl)-L-tyrosine] |  |  | + | 
COc1ccc(C[C@H](NC(=O)C(F)=Cc2ccc(C)cc2)C(=O)O)cc1 [Compound S-5, O-methyl-N-(α-fluoro-4-methycinnamoyl)-L-tyrosine] | ≥ 3000 mg/kg |  | + | 
CCOc1ccc(C[C@H](NC(=O)C(F)=Cc2ccc(C)cc2)C(=O)O)cc1 [Compound S-6, O-ethyl-N-(α-fluroro-4-methylcinnamoyl)-L-tyrosine] |  | + | + | degree of increase of blood insulin ([2]; 15 min.): 5.3; percent decrease in blood sugar (%) ([2]; 15 min.): 29.1%; degree of increase of blood insulin ([2]; 30 min.): -; degree of increase of blood insulin ([2]; 60 min.): -
COc1ccc(C[C@H](NC(=O)C(Cl)=Cc2ccc(C)cc2)C(=O)O)cc1 [Compound S-7, O-methyl-N-(α-chloro-4-methylcinnamoyl)-L-tyrosine] |  | + | + | percent decrease in blood sugar (%) ([2]; 15 min.): 28.6%
COc1ccc(C[C@@H](NC(=O)C(Cl)=Cc2ccc(C)cc2)C(=O)O)cc1 [Compound S-8, O-methyl-N-(α-chloro-4-methylcinnamoyl)-D-tyrosine] |  |  | + | 
COc1ccc(C[C@H](NC(=O)C=C(Cl)c2ccc(C)cc2)C(=O)O)cc1 [Compound S-9, O-methyl-N-(β-chloro-4-methylcinnamoyl)-L-tyrosine] | ≥ 3000 mg/kg |  |  | degree of increase of blood insulin ([2]; 60 min.): -
COc1ccc(C[C@@H](NC(=O)C=C(Cl)c2ccc(C)cc2)C(=O)O)cc1 [Compound S-10, O-methyl-N-(β-chloro-4-methylcinnamoyl)-D-tyrosine] |  |  | + | 
